Experimental data as given in publication PMC7568786, “Tilianin Protects against Ischemia/Reperfusion-Induced Myocardial Injury through the Inhibition of the Ca^2+/Calmodulin-Dependent Protein Kinase II-Dependent Apoptotic and Inflammatory Signaling Pathways” (BioMed Research International, 2020).

Molecular target: T1, CaMKIIδ (Homo sapiens, UniProt Q13557)
T1 construct: gene CAMK2D; recombinant CaMKIIδ (Invitrogen)
Experiment: in vitro kinase assay with autocamtide-2 peptide, ADP quantification
Format: biochemical

T1 sequence (Q13557 2-499): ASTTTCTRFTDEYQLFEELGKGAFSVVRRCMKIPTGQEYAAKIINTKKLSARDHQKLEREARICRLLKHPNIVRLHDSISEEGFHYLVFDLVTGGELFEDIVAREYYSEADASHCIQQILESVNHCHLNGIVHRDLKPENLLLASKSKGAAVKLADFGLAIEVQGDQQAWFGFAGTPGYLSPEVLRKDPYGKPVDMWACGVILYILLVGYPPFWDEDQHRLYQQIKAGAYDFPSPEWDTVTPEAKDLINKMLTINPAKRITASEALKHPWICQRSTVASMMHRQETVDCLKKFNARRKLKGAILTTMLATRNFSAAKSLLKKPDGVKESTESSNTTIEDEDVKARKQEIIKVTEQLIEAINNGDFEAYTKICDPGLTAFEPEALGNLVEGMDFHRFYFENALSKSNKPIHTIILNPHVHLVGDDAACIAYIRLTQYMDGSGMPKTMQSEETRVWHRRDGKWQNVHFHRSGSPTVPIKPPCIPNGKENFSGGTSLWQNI

Row | Compound | IC50
1 | COc1ccc(S(=O)(=O)N(CCO)c2ccccc2CN(C)C/C=C/c2ccc(Cl)cc2)cc1 [KN93] | 6.37 µM
2 | COc1ccc(-c2cc(=O)c3c(O)cc(O[C@@H]4O[C@H](CO)[C@@H](O)[C@H](O)[C@H]4O)cc3o2)cc1 [tilianin] | > 100 µM
